The record followed here is patent US20220235064A1 (WELLMARKER BIO CO., LTD., priority 2019, published 2022).

Assay [1] deals with cancer cell line KM12C, in which RON is activated. The assay can be described thus: Cell-killing efficacy in RON-activated cancer cell line (trypan blue). Type of assay: cell-based. The conditions noted are these: for cytotoxicity at 1 µM / cytotoxicity at 5 µM: Homo sapiens, 48 hours, trypan blue, n=2, read-out: Cell death (%) Cancer cell line KM12C; for cell-killing effect (in words): as compared with the positive control. An outline of the steps: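 KM12C cells seeded 1×10^5 per 60 mm^2 dish in MEM + 10% FBS, then exposed 24 h later to compound at 1 μM or 5 μM for 48 h.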

The subject of assay [2] is cancer cell line HT29, in which mutated RON (Δ160) is expressed. The assay can be described thus: Cell-killing efficacy in RON-mutated cancer cell line HT29 (trypan blue). Type of assay: cell-based. The conditions noted are these: for cytotoxicity at 1 µM / cytotoxicity at 5 µM: Homo sapiens, HT-29, 48 hours, trypan blue, n=2, read-out: Cell death (%) Cancer cell line HT29; for cell-killing effect (in words): HT29, as compared with the positive control. The procedure: (§1) Experimental Example 4: Measurement of Cell-Killing Efficacy of Example Compounds in RON-Mutated Cancer Cell Lines
(§2) Each of two colorectal cancer cell lines, that is, the cancer cell line HT29 (30038, KCLB, RPMI+10% FBS), in which mutated RON (Δ160) is expressed, and the cancer cell line SW620 (CCL-227, ATCC, RPMI+10% FBS), in which mutated RON (Δ155) is expressed, was dispensed into each 60 mm^2 dish at 1×10^5 cells. After 24 hours, the dish was treated with each of the example compounds at a concentration of 1 μM or 5 μM while performing medium exchange, and then reaction was allowed to proceed for 48 hours. After 48 hours, centrifugation was performed for 4 minutes at 1,500 rpm to collect cells and cell fluid. Thereafter, living cells and dead cells were quantified (n=2) using a trypan blue solution (15250-061, Gibco), and statistical analysis was performed using Excel-T-test. Here, as a negative control, only a solvent (0.10% DMSO) was used; and as a positive control, N-(4-(2-amino-3-chloropyridin-4-yloxy)-3-fluorophenyl)-4-ethoxy-1-(4-fluorophenyl)-2-oxo-1,2-dihydropyridine-3-carboxamide, which is the compound of Example 1 in WO 2008/058229 A1, was used.

Assay [3] deals with cancer cell line KM12C, in which RON is activated. The assay can be described thus: Cell growth inhibitory ability in RON-activated cancer cell line (MTS). Format: cell-based. The conditions noted are these: Homo sapiens, 48 hours, absorbance 490 nm. In outline: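 KM12C cells (RON-activated, MEM with FBS) exposed to compound […] for 48 h. MTS added 24 h after treatment ended, incubated 4 h at 37° C, absorbance read at 490 nm. IC50 derived from absorbance.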

Another assay concerns the target T1, RON tyrosine kinase (Homo sapiens, UniProt Q04912).
T1 construct: purchased Carna Bioscience
The assay can be described thus: Enzyme inhibitory activity against RON tyrosine kinase (TR-FRET). Type of assay: biochemical. The following applies: RON (Carna Bioscience). In outline:
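Recombinant RON was preincubated with compound for 15 min at RT in 50 mM HEPES pH 7.5, 10 mM MgCl2, 1 mM EGTA, 2 mM DTT, 0.01% Tween-20. Enzyme (0.4 nM), ATP (60 μM) and tyrosine peptide (400 nM) were prepared at 2×, 4× and 4× final. After 60 min at RT, EDTA/Eu-anti-phosphotyrosine stop; IC50 from 665 nm TR-FRET emission.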

Assay [4] relates to cancer cell line SW620, in which mutated RON (Δ155) is expressed. The assay can be described thus: Cell-killing efficacy in RON-mutated cancer cell line SW620 (trypan blue). Type of assay: cell-based. The conditions noted are these: for cytotoxicity at 1 µM / cytotoxicity at 5 µM: Homo sapiens, SW-620, 48 hours, trypan blue, n=2, read-out: Cell death (%) Cancer cell line SW620; for cell-killing effect (in words): SW620, as compared with the positive control. On the procedure:
as §1, §2

T1 sequence (Q04912 25-1400): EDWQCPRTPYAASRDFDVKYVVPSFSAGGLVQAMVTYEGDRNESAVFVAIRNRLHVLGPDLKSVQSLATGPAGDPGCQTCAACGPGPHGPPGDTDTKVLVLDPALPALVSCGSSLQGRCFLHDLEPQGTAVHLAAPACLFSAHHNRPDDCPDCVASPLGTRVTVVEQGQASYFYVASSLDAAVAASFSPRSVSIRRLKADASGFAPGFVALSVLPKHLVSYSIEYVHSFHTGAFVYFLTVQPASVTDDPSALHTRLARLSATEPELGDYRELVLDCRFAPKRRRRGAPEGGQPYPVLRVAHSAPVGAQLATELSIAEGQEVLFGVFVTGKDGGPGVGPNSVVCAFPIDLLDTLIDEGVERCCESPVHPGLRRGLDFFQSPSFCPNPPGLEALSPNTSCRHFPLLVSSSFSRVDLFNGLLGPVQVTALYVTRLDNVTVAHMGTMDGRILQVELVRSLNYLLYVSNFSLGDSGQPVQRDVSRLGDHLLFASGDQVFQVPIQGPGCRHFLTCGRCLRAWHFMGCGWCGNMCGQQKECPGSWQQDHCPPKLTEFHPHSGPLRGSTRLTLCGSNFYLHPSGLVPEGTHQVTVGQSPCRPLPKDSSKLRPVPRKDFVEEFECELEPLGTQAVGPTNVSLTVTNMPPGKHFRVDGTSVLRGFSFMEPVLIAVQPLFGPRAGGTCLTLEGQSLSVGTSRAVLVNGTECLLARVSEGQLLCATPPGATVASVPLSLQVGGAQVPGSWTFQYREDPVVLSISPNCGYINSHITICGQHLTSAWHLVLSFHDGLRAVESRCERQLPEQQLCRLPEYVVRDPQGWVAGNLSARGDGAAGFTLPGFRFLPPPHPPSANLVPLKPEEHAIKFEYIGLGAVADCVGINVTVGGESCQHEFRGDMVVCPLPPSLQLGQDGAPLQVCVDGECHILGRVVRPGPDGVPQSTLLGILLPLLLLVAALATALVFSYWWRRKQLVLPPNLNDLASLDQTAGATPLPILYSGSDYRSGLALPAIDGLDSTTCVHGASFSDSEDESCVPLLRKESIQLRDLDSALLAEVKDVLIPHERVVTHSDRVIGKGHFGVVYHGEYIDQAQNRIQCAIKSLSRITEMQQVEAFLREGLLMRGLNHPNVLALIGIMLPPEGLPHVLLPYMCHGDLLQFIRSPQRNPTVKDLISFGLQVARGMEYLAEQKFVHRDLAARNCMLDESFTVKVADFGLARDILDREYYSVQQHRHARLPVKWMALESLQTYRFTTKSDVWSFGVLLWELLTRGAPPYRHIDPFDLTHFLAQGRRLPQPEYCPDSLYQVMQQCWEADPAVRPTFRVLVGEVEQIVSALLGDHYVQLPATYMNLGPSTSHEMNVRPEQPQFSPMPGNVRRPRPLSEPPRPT

One may read the IC50 as the concentration needed to halve the response being measured. Low values mean inhibition by little substance, high ones a need for much substance. Regarding `O=C(Nc1ccc(Oc2ccnc3cc(OCCCN4CCOCC4)ccc23)c(F)c1)c1c2c(cn(-c3ccc(F)cc3)c1=O)CCO2` [Example 158, N-(3-Fluoro-4-((7-(3-morpholinopropoxy)quinolin-4-yl)oxy)phenyl)-5-(4-fluorophenyl)-6-oxo-2,3,5,6-tetrahydrofuro[3,2-c]pyridine-7-carboxamide], the values for the cytotoxicity at 1 µM in assay [1], in assay [2] and in assay [4] were 24.1%, 15.2% and 11.6%, respectively. Moreover, the results for the cytotoxicity at 5 µM in assay [1], in assay [2] and in assay [4] were 37.1%, 30.9% and 92.3%, respectively. Besides, the results for the IC50 (in assay [3]; on RON tyrosine kinase) were 5 nM and 1.99 nM, respectively.

For `Cn1cnc(-c2cc3nccc(Oc4ccc(NC(=O)c5c6c(cn(-c7ccc(F)cc7)c5=O)CCO6)cc4F)c3s2)c1` [Example 8, N-(3-Fluoro-4-((2-(1-methyl-1H-imidazol-4-yl)thieno[3,2-b]pyridin-7-yl)oxy)phenyl)-5-(4-fluorophenyl)-6-oxo-2,3,5,6-tetrahydrofuro[3,2-c]pyridine-7-carboxamide], the results for the cytotoxicity at 1 µM in assay [1], in assay [2] and in assay [4] were 32.4%, 4.88% and 5.98%, respectively. For the same compound, the cytotoxicity at 5 µM in assay [1] was 46.9%; in assay [2], 16.8%; in assay [4], 7.83%. For the same compound, the values for the IC50 (in assay [3]; at RON tyrosine kinase) were 0.3 nM and 0.66 nM, respectively.

Consider `COc1cc2c(Oc3ccc(NC(=O)c4c5c(cn(-c6ccc(F)cc6)c4=O)CCO5)cc3F)ccnc2cc1NC(C)=O` [Example 184, N-(4-((7-Acetamido-6-methoxyquinolin-4-yl)oxy)-3-fluorophenyl)-5-(4-fluorophenyl)-6-oxo-2,3,5,6-tetrahydrofuro[3,2-c]pyridine-7-carboxamide], for which the cytotoxicity at 1 µM in assay [1] came to 13.8%; in assay [2], 7.9%; in assay [4], 5%. Further, the values for the cytotoxicity at 5 µM in assay [1], in assay [2] and in assay [4] were 54.2%, 23.2% and 29.8%, respectively. The IC50 turned out to be 2 nM in assay [3] and 0.92 nM at RON tyrosine kinase.

With `COc1cc2nccc(Oc3ccc(NC(=O)c4c5c(cn(-c6ccc(F)cc6)c4=O)CCO5)cc3F)c2cc1NCCN1CCOCC1` [Example 185, N-(3-Fluoro-4-((7-methoxy-6-((2-morpholinoethyl)amino)quinolin-4-yl)oxy)phenyl)-5-(4-fluorophenyl)-6-oxo-2,3,5,6-tetrahydrofuro[3,2-c]pyridine-7-carboxamide], the cytotoxicity at 1 µM was 32.5% in assay [1], 5.1% in assay [2] and 28.1% in assay [4]. Also, the cytotoxicity at 5 µM in assay [1] was 63.8%; in assay [2] it was 32.4%; in assay [4], 70.2%. For the same compound, the “cell-killing effect (in words)” value in assay [1], in assay [2] and in assay [4] was “high cell-killing effect” throughout. Further, the results for the IC50 (in assay [3]; on RON tyrosine kinase) were 1 nM and 4.67 nM, respectively.

`COc1cc2c(Oc3ccc(NC(=O)c4c5c(cn(-c6ccc(F)cc6)c4=O)CCO5)cc3F)ccnc2cc1N` [Example 181, N-(4-((7-Amino-6-methoxyquinolin-4-yl)oxy)-3-fluorophenyl)-5-(4-fluorophenyl)-6-oxo-2,3,5,6-tetrahydrofuro[3,2-c]pyridine-7-carboxamide]: the cytotoxicity at 1 µM in assay [1] was determined as 14.6%; in assay [2] it was 10.2%; in assay [4], 11.3%. The cytotoxicity at 5 µM in assay [1] was 36.8%; in assay [2], 99.1%; in assay [4], 35%. Further, the figures for the IC50 (in assay [3]; on RON tyrosine kinase) were 2 nM and 5.92 nM, respectively.

As for `COc1cc2c(Oc3ccc(NC(=O)c4c5c(cn(-c6ccc(F)cc6)c4=O)CCO5)cc3F)ccnc2cc1NCCCN1CCOCC1` [Example 188, N-(3-Fluoro-4-((6-methoxy-7-((3-morpholinopropyl)amino)quinolin-4-yl)oxy)phenyl)-5-(4-fluorophenyl)-6-oxo-2,3,5,6-tetrahydrofuro[3,2-c]pyridine-7-carboxamide], the cytotoxicity at 1 µM came out at 25.4% in assay [1], 28.7% in assay [2] and 26.9% in assay [4]. The cytotoxicity at 5 µM in assay [1] is 57.3%; in assay [2] it was 94.4%; in assay [4], 31.6%. Further, the “cell-killing effect (in words)” value in assay [1], in assay [2] and in assay [4] was “high cell-killing effect” throughout. Besides, the IC50 in assay [3] turned out to be 8 nM; against RON tyrosine kinase it was 3.23 nM.

As for `COc1cc2nccc(Oc3ccc(NC(=O)c4c5c(cn(-c6ccc(F)cc6)c4=O)CCO5)cc3F)c2cc1NC(C)=O` [Example 52, N-(4-((6-Acetamido-7-methoxyquinolin-4-yl)oxy)-3-fluorophenyl)-5-(4-fluorophenyl)-6-oxo-2,3,5,6-tetrahydrofuro[3,2-c]pyridine-7-carboxamide], the cytotoxicity at 1 µM in assay [1] came to 10.1%; in assay [2], 10.5%; in assay [4], 13.6%. The values for the cytotoxicity at 5 µM in assay [1], in assay [2] and in assay [4] were 24.7%, 16.1% and 81.8%, respectively. In addition, the IC50 in assay [3] was determined as 1 nM; on RON tyrosine kinase, 1.83 nM.

With `COc1cc2c(Oc3ccc(NC(=O)c4c5c(cn(-c6ccc(F)cc6)c4=O)CCO5)cc3F)ccnc2cc1OCCCN1CCOCC1` [Example 76, N-(3-Fluoro-4-((6-methoxy-7-(3-morpholinopropoxy)quinolin-4-yl)oxy)phenyl)-5-(4-fluorophenyl)-6-oxo-2,3,5,6-tetrahydrofuro[3,2-c]pyridine-7-carboxamide], the results for the cytotoxicity at 1 µM in assay [1], in assay [2] and in assay [4] were 35.7%, 21.9% and 46.4%, respectively. In addition, the figures for the cytotoxicity at 5 µM in assay [1], in assay [2] and in assay [4] were 38.3%, 28.6% and 67.8%, respectively. Also, the “cell-killing effect (in words)” value in assay [1], in assay [2] and in assay [4] was “high cell-killing effect” in each case. For the same compound, the results for the IC50 (in assay [3]; at RON tyrosine kinase) were 4 nM and 1.79 nM, respectively.

On to `CCOc1ccn(-c2ccc(F)cc2)c(=O)c1C(=O)Nc1ccc(Oc2ccnc(N)c2Cl)c(F)c1` [Positive control, N-(4-(2-amino-3-chloropyridin-4-yloxy)-3-fluorophenyl)-4-ethoxy-1-(4-fluorophenyl)-2-oxo-1,2-dihydropyridine-3-carboxamide, reference compound], for which the cytotoxicity at 1 µM was found to be 9.94% in assay [1], 10.4% in assay [2] and 3.46% in assay [4]. Besides, the cytotoxicity at 5 µM in assay [1] worked out at 12.8%; in assay [2] it was 16.1%; in assay [4], 9.28%. Further, the IC50 in assay [3] was determined as 133 nM.

As to `COc1cc2c(Oc3ccc(NC(=O)c4c5c(cn(-c6ccc(F)cc6)c4=O)CCO5)cc3F)ccnc2cc1NCCN1CCOCC1` [Example 187, N-(3-Fluoro-4-((6-methoxy-7-((2-morpholinoethyl)amino)quinolin-4-yl)oxy)phenyl)-5-(4-fluorophenyl)-6-oxo-2,3,5,6-tetrahydrofuro[3,2-c]pyridine-7-carboxamide], the figures for the cytotoxicity at 1 µM in assay [1], in assay [2] and in assay [4] were 20.4%, 8.4% and 23.9%, respectively. In addition, the cytotoxicity at 5 µM in assay [1] was found to be 60%; in assay [2] it was 34.3%; in assay [4], 50.5%. Moreover, the “cell-killing effect (in words)” value in assay [1], in assay [2] and in assay [4] was “high cell-killing effect” each time. Moreover, the IC50 in assay [3] was 6 nM; against RON tyrosine kinase it was 3.86 nM.
